Results reported in ChEMBL document CHEMBL1649430, “Antimicrobial susceptibility of Mycoplasma pneumoniae isolates and molecular analysis of macrolide-resistant strains from Shanghai, China” (2009).
Converted amounts (≈) assume the structure as drawn.

Assays:
[1] = system: Mycoplasmoides pneumoniae; experiment: Antimicrobial activity against Mycoplasma pneumoniae ATCC 15531 by broth microdilution method
[2] = system: Mycoplasmoides pneumoniae; experiment: Antimicrobial activity against macrolide-resistant Mycoplasma pneumoniae clinical isolates obtained from bronchial aspirations expressing 23S rRNA A2063G mutant gene and P1 RFLP type I gene by broth microdilution method; type: functional

| SMILES | MIC [1] [µg/mL] | MIC [2] [µg/mL] | MIC50 [2] [µg/mL] | MIC90 [2] [µg/mL] |
| --- | --- | --- | --- | --- |
| CC[C@H]1OC(=O)[C@H](C)[C@@H](O[C@H]2C[C@@](C)(OC)[C@@H](O)[C@H](C)O2)[C@H](C)[C@@H](O[C@@H]2O[C@H](C)C[C@H](N(C)C)[C@H]2O)[C@](C)(O)C[C@@H](C)CN(C)[C@H](C)[C@@H](O)[C@]1(C)O [AZITHROMYCIN] | ≤ 0.007 | ≤ 0.007 | 16 (≈ 21.4 µM) | 64 (≈ 85.4 µM) |
| O=C(O)c1cn(C2CC2)c2cc(N3CCNCC3)c(F)cc2c1=O [CIPROFLOXACIN] | 0.25 (≈ 0.754 µM) |  |  |  |
| CC[C@H]1OC(=O)[C@H](C)[C@@H](O[C@H]2C[C@@](C)(OC)[C@@H](O)[C@H](C)O2)[C@H](C)[C@@H](O[C@@H]2O[C@H](C)C[C@H](N(C)C)[C@H]2O)[C@](C)(OC)C[C@@H](C)C(=O)[C@H](C)[C@@H](O)[C@]1(C)O [CLARITHROMYCIN] | ≤ 0.007 | ≤ 0.007 | 128 (≈ 171 µM) | > 128 |
| C[C@H]1c2cccc(O)c2C(=O)C2=C(O)[C@]3(O)C(=O)C(C(N)=O)=C(O)[C@@H](N(C)C)[C@@H]3[C@@H](O)[C@@H]21.O [DOXYCYCLINE] | 0.03 | ≤ 0.007 | 0.06 | 0.125 |
| CC[C@H]1OC(=O)[C@H](C)[C@@H](O[C@H]2C[C@@](C)(OC)[C@@H](O)[C@H](C)O2)[C@H](C)[C@@H](O[C@@H]2O[C@H](C)C[C@H](N(C)C)[C@H]2O)[C@](C)(O)C[C@@H](C)C(=O)[C@H](C)[C@@H](O)[C@]1(C)O [ERYTHROMYCIN] | ≤ 0.007 | ≤ 0.007 | > 128 | > 128 |
| CO[C@@H]1[C@@H](O[C@@H]2O[C@H](C)[C@@H](O[C@H]3C[C@@](C)(O)[C@@H](OC(=O)CC(C)C)[C@H](C)O3)[C@H](N(C)C)[C@H]2O)[C@@H](CC=O)C[C@@H](C)[C@@H](O)/C=C/C=C/C[C@@H](C)OC(=O)C[C@H]1OC(C)=O [JOSAMYCIN] | ≤ 0.007 | ≤ 0.007 | 2 (≈ 2.42 µM) | 4 (≈ 4.83 µM) |
| C[C@H]1COc2c(N3CCN(C)CC3)c(F)cc3c(=O)c(C(=O)O)cn1c23.C[C@H]1COc2c(N3CCN(C)CC3)c(F)cc3c(=O)c(C(=O)O)cn1c23.O [LEVOFLOXACIN] | 0.25 | 0.015 | 0.25 | 0.5 |
| CN(C)c1ccc(O)c2c1C[C@H]1C[C@H]3[C@H](N(C)C)C(O)=C(C(N)=O)C(=O)[C@@]3(O)C(O)=C1C2=O [MINOCYCLINE] | 0.06 (≈ 0.131 µM) | ≤ 0.007 | 0.06 (≈ 0.131 µM) | 0.125 (≈ 0.273 µM) |
| COc1c(N2C[C@@H]3CCCN[C@@H]3C2)c(F)cc2c(=O)c(C(=O)O)cn(C3CC3)c12 [MOXIFLOXACIN] | 0.06 (≈ 0.149 µM) |  |  |  |
| CN(C)[C@@H]1C(O)=C(C(N)=O)C(=O)[C@@]2(O)C(O)=C3C(=O)c4c(O)cccc4[C@@](C)(O)[C@H]3C[C@@H]12 [TETRACYCLINE] | 0.06 (≈ 0.135 µM) | 0.015 (≈ 0.0338 µM) | 0.06 (≈ 0.135 µM) | 0.125 (≈ 0.281 µM) |
